The test system of one test is bacteria. Kind of test: Minimum inhibitory concentration (MIC) assay, bacteria. In kind it is cell-based. On the procedure: (§1) The assays described below were used to measure the minimum inhibitory concentration (MIC) of a compound necessary to inhibit visible growth of the organism tested. These assays are adapted from NCCLS protocols M7-A4 and M27-A (NCCLS vol 17:9 and vol 17:2) as modified by Sandven, S., Clin. Micro. (1999) 37:12, p. 3856–3859. MIC values for Aspergillus species were determined using NCCLS protocol M38-P.
(§2) All compounds were dissolved in 100% DMSO to a stock concentration of 10 mM and used fresh stock compounds in powder form were kept frozen until needed and used freshly. When used for test purposes, compounds were diluted in the appropriate media depending on the organism being tested.
(§3) For yeast and aspergillus species, seven 1:2 serial dilutions of compound in appropriate media buffered with MOPS at pH 7.0 were prepared such that the final starting test compound concentrations were 44.4 μM for yeast and 50 μM aspergillus species. For bacteria, dilutions were made in growth media used for the particular bacteria being tested.
Five well-separated colonies from a 24 h Sabouraud Dextrose plate incubated at 35° C. were picked and resuspended into 2 mL of normal saline. The O.D.530 was read and the culture was adjusted to 0.5 McFarland units with normal saline. A 1:2000 dilution was made with RPMI 1640 media buffered with MOPS at pH 7.0 and 100 μL of this inoculum preparation was added to an equal volume of test compound-containing media. 25 μL of the redox indicator Alamar Blue (Biosource International) was added to each well and the plates were incubated for 48 h at 35° C. Wells having yeast growth changed color from blue to pink.
Inoculums are made in the same manner as yeast except all dilutions are made in normal saline, with a final dilution of 1:200 and an inoculum of 10 μL.

Another test deals with Aspergillus species. Kind of test: Minimum inhibitory concentration (MIC) assay, filamentous fungi. The test is classed as cell-based. The settings on record: antifungal activity, lowest concentration at which 75% inhibition of growth is observed after 48 h. On the procedure:
as §1, §2, §3
Inoculums are made by incubating Aspergillus species for 7 days at 35° C. on potato dextrose agar slants. Slants are then covered with 1.0 mL of 0.85% saline, one drop of Tween 20 is added and colonies are teased with a sterile transfer loop to create a suspension which is allowed to sit for 5 min so heavier particles can drop out. The upper suspension is separated and adjusted to an optical density of 0.09 to 0.11. The resulting suspension is diluted 1:50, which yields 2× the final inoculum needed. Micro dilution trays are prepared as with yeast and incubated for 48 h at 35° C. For our purposes the MIC is defined as the lowest compound concentration at which 75% inhibition of growth is observed after 48 h.

Structures can show the parent of a compound that is named as a salt. Some results are limits rather than exact numbers.

Broadly, the MIC is the least concentration at which growth counts as inhibited.

As for `C/N=C(\N)NCCCNC(=O)c1cc2cc(NC(=O)c3cc4cc(C(=O)NCCNC(=N)NC)ccc4[nH]3)ccc2[nH]1` [Compound 68, 1H-Indole-2,5-dicarboxylic acid 5-{[2-(N′-methyl-guanidino)-ethyl]-amide} 2-({2-[3-(N′-methyl-guanidino)-propylcarbamoyl]-1H-indol-5-yl}-amide)], the minimum inhibitory concentration (MIC) was no more than 45.5 µM against bacteria and no more than 50 µM against Aspergillus species.
Turning to `C/N=C(\NC)NCCCNC(=O)c1cc2cc(NC(=O)c3cc4cc(C(=O)NCCN/C(=N/C)NC)ccc4[nH]3)ccc2[nH]1` [Compound 69, 1H-Indole-2,5-dicarboxylic acid 2-{[2-(N′,N″-dimethyl-guanidino)-ethyl]-amide} 5-({2-[3-(7N′,N″-dimethyl-guanidino)-propylcarbamoyl]-1H-indol-5-yl}-amide)], the MIC was no more than 45.5 µM in the test on bacteria and no more than 50 µM against Aspergillus species.
With `N=C(N)NCCCNC(=O)c1ccc2[nH]c(C(=O)Nc3ccc4cc(C(=O)NCCCNC(=N)N)[nH]c4c3)cc2c1` [Compound 72, 1H-Indole-2,5-dicarboxylic acid 5-[(3-guanidino-propyl)-amide] 2-{[2-(3-guanidino-propylcarbamoyl)-1H-indol-6-yl-]-amide}], the MIC with bacteria was no more than 45.5 µM; in the test with Aspergillus species, no more than 50 µM.
As to `CNC(=N)NCCCNC(=O)c1ccc2[nH]c(C(=O)Nc3ccc4cc(C(=O)NCCCNC(=N)NC)[nH]c4c3)cc2c1` [Compound 73, 1H-Indole-2,5-dicarboxylic acid 5-[(3-(N′-methyl-guanidino)-propyl)-amide] 2-{[2-(3-(N′-methyl-guanidino)-propylcarbamoyl)-1H-indol-6-yl-]-amide}], the figures for the MIC against bacteria and in the test with Aspergillus species were no more than 45.5 µM and no more than 50 µM, respectively.
Turning to `C/N=C(\NC)NCCCNC(=O)c1ccc2[nH]c(C(=O)Nc3ccc4cc(C(=O)NCCCN/C(=N/C)NC)[nH]c4c3)cc2c1` [Compound 74, 1H-Indole-2,5-dicarboxylic acid 5-[(3-(N N′,N″-dimethyl-guanidino)-propyl)-amide] 2-{[2-(3-(N′,N″-dimethyl-guanidino)-propylcarbamoyl)-1H-indol-6-yl-]-amide}], the results for the minimum inhibitory concentration (MIC) in the test with bacteria and against Aspergillus species were no more than 45.5 µM and no more than 50 µM, respectively.
For `N=C(N)NCCCNC(=O)c1ccc2[nH]c(C(=O)Nc3ccc4[nH]c(C(=O)NCCCNC(=N)N)cc4c3)cc2c1` [Compound 75, 1H-Indole-2,5-dicarboxylic acid 5-[(3-guanidino-propyl)-amide] 2-{[2-(3-guanidino-propylcarbamoyl)-1H-indol-5-yl-]-amide}], the MIC against bacteria is no more than 45.5 µM; in the test on Aspergillus species it was no more than 50 µM.
Regarding `CNC(=N)NCCCNC(=O)c1ccc2[nH]c(C(=O)Nc3ccc4[nH]c(C(=O)NCCCNC(=N)NC)cc4c3)cc2c1` [Compound 76, 1H-Indole-2,5-dicarboxylic acid S-[(3-(N′-methyl-guanidino)-propyl)-amide] 2-[[2-(3-(N′-methyl-guanidino)-propylcarbamoyl)-1H-indol-5-yl-]-amide)], the MIC in the test on bacteria was no more than 45.5 µM; against Aspergillus species, no more than 50 µM.
In the case of `C/N=C(\NC)NCCCNC(=O)c1ccc2[nH]c(C(=O)Nc3ccc4[nH]c(C(=O)NCCCN/C(=N/C)NC)cc4c3)cc2c1` [Compound 77, 1H-Indole-2,5-dicarboxylic acid 5-[(3-(N′,N″-dimethyl-guanidino)-propyl)-amide] 2-{[2-(3-(N′,N″-dimethyl-guanidino)-propylcarbamoyl)-1H-indol-5-yl-]-amide}], the MIC was no more than 45.5 µM in the test with bacteria and no more than 50 µM in the test on Aspergillus species.
In the case of `CC(C)Cn1cc(NC(=O)c2cc3cc(C(=O)NCCNC(=N)N)ccc3[nH]2)cc1C(=O)NCCNC(=N)N` [Compound 80, 1H-Indole-2,5-dicarboxylic acid 5-[(2-guanidino-ethyl)-amide] 2-{[5-(2-guanidino-ethylcarbamoyl)-1-isobutyl-1H-pyrrol-3-yl]-amide)], the minimal inhibitory concentration (MIC) in the test with bacteria is no more than 45.5 µM; in the test on Aspergillus species, no more than 50 µM.
On to `CNC(=N)NCCNC(=O)c1ccc2[nH]c(C(=O)Nc3cc(C(=O)NCCNC(=N)NC)n(CC(C)C)c3)cc2c1` [Compound 81, 1H-Indole-2,5-dicarboxylic acid 2-({1−isobutyl-5-[2-(N′-methyl-guanidino)-ethylcarbamoyl]-1H-pyrrol-3-yl}amide) 5-{[2-(N′-methyl-guanidino)-ethyl]-amide}], for which the results for the MIC with bacteria and with Aspergillus species were no more than 45.5 µM and no more than 50 µM, respectively.
`N=C(N)NCCNC(=O)c1ccc2[nH]c(C(=O)Nc3ccc4[nH]c(C(=O)NCCNC(=N)N)cc4c3)cc2c1` [Compound 82, 1H-Indole-2,5-dicarboxylic acid 5-[(2-guanidino-ethyl)-amide] 2-{[2-(2-guanidino-ethylcarbamoyl)-1H-indol-5-yl]-amide}]: the MIC was no more than 45.5 µM with bacteria and no more than 50 µM with Aspergillus species.
With `CC(=N)NCCNC(=O)c1ccc2[nH]c(C(=O)Nc3ccc4[nH]c(C(=O)NCCNC(C)=N)cc4c3)cc2c1` [Compound 89], the minimal inhibitory concentration (MIC) with bacteria was no more than 45.5 µM; against Aspergillus species it was no more than 50 µM.
Take `CC/N=C(\NC)NCCNC(=O)c1ccc2[nH]c(C(=O)Nc3ccc4[nH]c(C(=O)NCCN/C(=N/CC)NC)cc4c3)cc2c1` [Compound 91, 1H-Indole-2,5-dicarboxylic acid 2-{[2-(N′-ethyl-N′-methylguanidino)ethyl]amide} 5-({2-[2-(N′-ethyl-N″-methylguanidino)ethylcarbamoyl]-1H-indol-5-yl}amide), dihydrochloride]: the results for the MIC in the test on bacteria and against Aspergillus species were no more than 45.5 µM and no more than 50 µM, respectively.
For `CN/C(=N\CCO)NCCNC(=O)c1ccc2[nH]c(C(=O)Nc3ccc4[nH]c(C(=O)NCCN/C(=N/CCO)NC)cc4c3)cc2c1` [Compound 92, 1H-Indole-2,5-dicarboxylic acid 2-({2-[N′-(2-hydroxyethyl)-N″-methylguanidino]ethyl}amide) 5-({2-(2-[N′-(2-hydroxyethyl)-N″-methylguanidino]ethylcarbamoyl)-1H-indol-5-yl}amide]dihydrochloride], in that order: no more than 45.5 µM and no more than 50 µM.
For `N=C(N)CCNC(=O)c1cc(NC(=O)c2ccc(C(=O)NCCNC(=N)N)cc2)cn1CC1CC1` [Compound 100, N-[5-(2-Carbamimidoyl-ethylcarbamoyl)-1-cyclopropylmethyl-1H-pyrrol-3-yl]-N′-(2-guanidino-ethyl)-terephthalamide], in that order: no more than 45.5 µM and no more than 50 µM.
For `CNC(=N)NCCNC(=O)c1cc2cc(NC(=O)c3cc4cc(NC(=N)NC)ccc4[nH]3)ccc2[nH]1` [Compound 108, 5-[(5-(N′-methyl-guanidine)-1H-indole-2-carbonyl)-amino]-1H-indole-2-carboxylic acid [2-(N′-methyl-guanidino)ethyl]-amide], the minimal inhibitory concentration (MIC) was no more than 45.5 µM in the test on bacteria and no more than 50 µM against Aspergillus species.
As for `CNC(=N)NCCNC(=O)c1cc2cc(NC(=O)c3cc4cc(NC(=O)CNC(=N)NC)ccc4[nH]3)ccc2[nH]1` [Compound 110], the results for the MIC against bacteria and against Aspergillus species were no more than 45.5 µM and no more than 50 µM, respectively.
Take `CC(C)Cn1cc(NC(=O)c2cc3cc(NC(=O)CCNC(=N)N)ccc3[nH]2)cc1C(=O)NCCC(=N)N` [Compound 115, 5-(3-Guanidino-propionylamino)-1H-indole-2-carboxylic acid [5-(2-carbamimidoyl-ethylcarbamoyl)-1-isobutyl-1H-pyrrol-3-yl]-amide]: the MIC in the test on bacteria was no more than 45.5 µM; in the test on Aspergillus species, no more than 50 µM.
Consider `N=C(N)NCCNC(=O)c1ccc2[nH]c(C(=O)Nc3ccc4cc(C(=O)NCNC(=N)N)[nH]c4c3)cc2c1` [Compound 171, 1H-Indole-2,5-dicarboxylic acid 5-[(2-guanidino-ethyl)-amide] 2-{[2-(guanidinomethyl-carbamoyl)-1H-indol-6-yl]-amide}], for which the MIC in the test with bacteria is no more than 45.5 µM; against Aspergillus species, no more than 50 µM.
For `N=C(N)NCCNC(=O)c1ccc2[nH]c(C(=O)Nc3ccc4sc(C(=O)NCCNC(=N)N)cc4c3)cc2c1` [Compound 174, 1H-Indole-2,5-dicarboxylic acid 5-[(2-guanidino-ethyl)-amide] 2-{[2-(2-guanidino-ethylcarbamoyl)-benzo[b]thiophen-5-yl]-amide}], in that order: no more than 45.5 µM and no more than 50 µM.
Taken in the same sequence, the figures for `N=C(N)NCCNC(=O)c1ccc2[nH]c(C(=O)Nc3ccc4cc(C(=O)NCCNC(=N)c5ccccn5)[nH]c4c3)cc2c1` [Compound 180, 1H-Indole-2,5-dicarboxylic acid 5-[(2-guanidinoethyl)amide] 2-[(2-{2-[(pyridine-2-carboximidoyl)amino]ethylcarbamoyl}-1H-indol-6-yl)amide]] were no more than 45.5 µM and no more than 50 µM.

The values are drawn from patent US7141680B2, “Aromatic compounds possessing antifungal or antibacterial activity” (Genelabs Technologies, Inc., priority 2002, dated 2006).
